# According to patent publication US10745360B2, “Quinoxaline compounds, method for preparing the same and use thereof” (Development Center for Biotechnology, priority 2014, dated 2020):
# Key:
# B-Raf kinase = molecular target: T1, B-Raf kinase (Homo sapiens, UniProt P15056); assay: B-Raf kinase assay ([33P] incorporation into MEK1 K97R); type: biochemical; conditions: recombinant B-Raf, 8 μM ATP, 30 min, 30° C.; read-out: IC50 ranking against B-Raf kinase
# T1 construct: purchased Upstate Biotechnology
# T1 sequence (P15056 whole entry): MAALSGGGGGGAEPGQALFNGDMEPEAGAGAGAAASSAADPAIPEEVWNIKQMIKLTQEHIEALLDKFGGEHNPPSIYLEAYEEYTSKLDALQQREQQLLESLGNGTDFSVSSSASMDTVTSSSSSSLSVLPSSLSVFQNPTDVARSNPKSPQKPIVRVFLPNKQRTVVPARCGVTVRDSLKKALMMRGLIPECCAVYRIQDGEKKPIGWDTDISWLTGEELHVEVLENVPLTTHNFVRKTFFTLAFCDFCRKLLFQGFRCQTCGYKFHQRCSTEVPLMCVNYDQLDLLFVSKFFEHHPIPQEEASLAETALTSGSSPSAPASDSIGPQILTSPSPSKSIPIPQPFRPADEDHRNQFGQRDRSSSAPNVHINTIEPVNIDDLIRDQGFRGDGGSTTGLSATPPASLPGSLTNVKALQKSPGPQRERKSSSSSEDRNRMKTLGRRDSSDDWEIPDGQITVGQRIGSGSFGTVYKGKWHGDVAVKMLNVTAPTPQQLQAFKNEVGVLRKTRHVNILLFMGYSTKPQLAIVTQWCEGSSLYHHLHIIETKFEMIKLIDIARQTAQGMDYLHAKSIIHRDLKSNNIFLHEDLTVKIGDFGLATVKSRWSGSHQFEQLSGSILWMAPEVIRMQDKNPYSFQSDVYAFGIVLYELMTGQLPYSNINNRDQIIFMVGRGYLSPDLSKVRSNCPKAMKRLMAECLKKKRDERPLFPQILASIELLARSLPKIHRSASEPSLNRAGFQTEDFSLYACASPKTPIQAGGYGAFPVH
# Summary of the method: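 Recombinant B-Raf (5 ng) phosphorylating MEK1 K97R (500 ng) with 8 μM ATP plus [33P]ATP in Tris/HCl pH 7.5 buffer, 30 min at 30° C. Filter-captured 33P counted by scintillation; IC50 from 3-fold serial dilutions run in duplicate.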
# [1] = test system: SK-MEL-2 melanoma cell with wild type B-Raf (B-Raf^wt) and NRAS^Q61R mutation; assay: Cell proliferation assay (CELLTITER 96), SK-MEL-2; type: cell-based; conditions: Homo sapiens; SK-MEL-2, 72 hours; given as bound; read-out: Cytotoxicity (IC50 Ranking) SK-MEL-2 (NRAS^Q61R, B-Raf^wt)
# Summary of the method: (§1)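 Cells seeded overnight (A375 and COLO205 at 2000, SK-MEL-2 at 4000 cells/well), then exposed to increasing compound concentrations for 72 h at 37° C. Viability read by MTS absorbance at 490 nm after 4 h reagent; IC50 from curve fit of percent growth inhibition versus concentration.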
# [2] = test system: B-Raf^V600E mutant A375 melanoma cell; assay: Cell proliferation assay (CELLTITER 96), A375; type: cell-based; conditions: Homo sapiens, A-375; A375, 72 hours; read-out: Cytotoxicity (IC50 Ranking) A375 (B-Raf^V600E)
# Summary of the method: as §1
# [3] = test system: B-Raf^V600E mutant COLO205 colon cancer cell; assay: Cell proliferation assay (CELLTITER 96), COLO205; type: cell-based; conditions: Homo sapiens, COLO 205; COLO205, 72 hours; read-out: Cytotoxicity (IC50 Ranking) COLO205 (B-Raf^V600E)
# Summary of the method: as §1
# C-Raf kinase = molecular target: T2, C-Raf kinase (Homo sapiens, UniProt P04049); assay: C-Raf kinase assay ([33P] incorporation into MEK1 K97R); type: biochemical; conditions: recombinant C-Raf, 8 μM ATP, 30 min, 30° C.; read-out: IC50 ranking against C-Raf kinase
# T2 construct: purchased Upstate Biotechnology
# T2 sequence (P04049 whole entry): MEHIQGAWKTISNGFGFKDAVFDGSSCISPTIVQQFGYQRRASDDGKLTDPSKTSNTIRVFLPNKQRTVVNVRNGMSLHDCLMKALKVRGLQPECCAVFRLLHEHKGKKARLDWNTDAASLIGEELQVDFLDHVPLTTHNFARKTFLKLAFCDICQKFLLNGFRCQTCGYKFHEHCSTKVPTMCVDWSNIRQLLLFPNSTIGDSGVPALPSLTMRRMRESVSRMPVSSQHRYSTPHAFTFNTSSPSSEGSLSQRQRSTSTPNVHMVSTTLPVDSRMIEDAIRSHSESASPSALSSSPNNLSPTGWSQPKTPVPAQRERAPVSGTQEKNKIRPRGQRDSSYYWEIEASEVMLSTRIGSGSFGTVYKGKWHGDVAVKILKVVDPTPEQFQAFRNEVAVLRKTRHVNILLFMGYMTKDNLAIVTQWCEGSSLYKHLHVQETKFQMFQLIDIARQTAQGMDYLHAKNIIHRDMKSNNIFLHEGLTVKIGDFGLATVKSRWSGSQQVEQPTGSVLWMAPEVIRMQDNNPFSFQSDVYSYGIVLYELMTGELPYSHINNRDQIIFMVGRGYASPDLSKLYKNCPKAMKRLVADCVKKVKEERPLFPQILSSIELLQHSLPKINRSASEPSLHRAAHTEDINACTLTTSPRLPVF
# Summary of the method: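 Recombinant C-Raf (2 ng) phosphorylating MEK1(K97R) with 8 μM ATP plus [33P]ATP, pH 7.5 Tris buffer, 30 min at 30° C. Acid-stopped, filter-captured 33P counted by scintillation; IC50 from 3-fold dilution series run in duplicate.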
# B-Raf^V600E kinase = molecular target: T3, B-Raf^V600E kinase (Homo sapiens, UniProt P15056, V600E); assay: B-Raf V600E kinase assay ([33P] incorporation into MEK1 K97R); type: biochemical; conditions: recombinant B-Raf^V600E, 8 μM ATP, 30 min, 30° C.; read-out: IC50 ranking against B-Raf^V600E kinase
# T3 construct: purchased Upstate Biotechnology
# T3 sequence (P15056 whole entry V600E): as the sequence (P15056 whole entry) above, with V600E counted along it
# Summary of the method: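 Recombinant B-Raf V600E (5 ng) phosphorylating MEK1 K97R (500 ng) with 8 μM ATP plus [33P]ATP in Tris pH 7.5 buffer, 30 min at 30 °C. Filter-bound 33P counted by scintillation; IC50 from 3-fold dilution series in duplicate.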
IC50 (B-Raf kinase) [µM],IC50 (C-Raf kinase) [µM],IC50 (B-Raf^V600E kinase) [µM],SMILES,IC50 [1] [µM],IC50 [2] [µM],IC50 [3] [µM]
< 0.3,< 0.3,< 0.3,"CCCS(=O)(=O)Nc1ccc(F)c(Nc2ccc3ncc(OC)nc3c2C#N)c1Cl [compound 46, N-(2-chloro-3-(5-cyano-3-methoxyquinoxalin-6-ylamino)-4-fluorophenyl)propane-1-sulfonamide]",> 10,< 0.3,< 0.3
< 0.3,< 0.3,< 0.3,"COc1cnc2ccc(Nc3c(F)ccc(NS(=O)(=O)c4ccccc4)c3Cl)c(C#N)c2n1 [compound 47, N-(2-chloro-3-(5-cyano-3-methoxyquinoxalin-6-ylamino)-4-fluorophenyl)benzenesulfonamide]",> 10,< 0.3,< 0.3
< 0.3,< 0.3,< 0.3,"CCCS(=O)(=O)Nc1ccc(F)c(Nc2ccc3ncc(N4CCOCC4)nc3c2C#N)c1Cl [compound 48, N-(2-chloro-3-(5-cyano-3-morpholinoquinoxalin-6-ylamino)-4-fluorophenyl)propane-1-sulfonamide]",> 10,< 0.3,< 0.3
< 0.3,< 0.3,< 0.3,"N#Cc1c(Nc2c(F)ccc(NS(=O)(=O)c3ccccc3)c2Cl)ccc2ncc(N3CCOCC3)nc12 [compound 49, N-(2-chloro-3-(5-cyano-3-morpholinoquinoxalin-6-ylamino)-4-fluorophenyl)benzenesulfonamide]",> 10,< 0.3,< 0.3
< 0.3,< 0.3,< 0.3,"CCCS(=O)(=O)Nc1cccc(Nc2ccc3ncc(OC)nc3c2C#N)c1C#N [compound 50, N-(2-cyano-3-(5-cyano-3-methoxyquinoxalin-6-ylamino)phenyl)propane-1-sulfonamide]",> 10,< 0.3,< 0.3
